Consider 17 compounds from PubChem BioAssay AID330 (DTP/NCI, 2004).

“And” between values parts separate entries of the source, which are not always exact repeats. Identical values can stand only once. Inconclusive results and toxic doses are left out.

The subject of this test is P388 leukemia ip, CD2F1 mice, survival T/C. The experiment in a line: NCI In Vivo Anticancer Drug Screen. Data for tumor model P388 Leukemia (intraperitoneal) in CD2F1 (CDF1) mice. The settings on record: endpoint: median survival time, higher = longer survival. Put shortly: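 Mice carrying the transplanted tumor received test compound or vehicle. Survival was recorded in each group, and the value is the treated-group measurement divided by that of the vehicle-treated control group.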

[1] abbreviates: dose: 25.0 mg/kg/injection, schedule: Q04DX003 (ip), vehicle: saline with Tween-80.
Setting [2] is: dose: 50.0 mg/kg/injection, schedule: Q04DX003 (ip), vehicle: saline with Tween-80.
Setting [3] is: dose: 100.0 mg/kg/injection, schedule: Q04DX003 (ip), vehicle: saline with Tween-80.
Setting [4] is: dose: 25.0 mg/kg/injection, schedule: Q01DX001 (ip), vehicle: Klucel (hydroxypropylcellulose) (HPC).
[5] abbreviates: dose: 50.0 mg/kg/injection, schedule: Q01DX001 (ip), vehicle: Klucel (hydroxypropylcellulose) (HPC).
[6] abbreviates: dose: 100.0 mg/kg/injection, schedule: Q01DX001 (ip), vehicle: Klucel (hydroxypropylcellulose) (HPC).
[7] abbreviates: dose: 50.0 mg/kg/injection, schedule: Q01DX005 (ip), vehicle: Klucel (hydroxypropylcellulose) (HPC).
[8] abbreviates: dose: 100.0 mg/kg/injection, schedule: Q01DX005 (ip), vehicle: Klucel (hydroxypropylcellulose) (HPC).
Setting [9] is: dose: 50.0 mg/kg/injection, schedule: Q01DX009 (ip), vehicle: Klucel (hydroxypropylcellulose) (HPC).
Setting [10] is: dose: 100.0 mg/kg/injection, schedule: Q01DX009 (ip), vehicle: Klucel (hydroxypropylcellulose) (HPC).
[11] abbreviates: dose: 200.0 mg/kg/injection, schedule: Q01DX009 (ip), vehicle: Klucel (hydroxypropylcellulose) (HPC).
Where [12] appears, read: dose: 200.0 mg/kg/injection, schedule: Q01DX005 (ip), vehicle: Klucel (hydroxypropylcellulose) (HPC).
The mark [13] stands for this setting: dose: 50.0 mg/kg/injection, schedule: Q01DX009 (ip), vehicle: saline with Tween-80.
Setting [14] is: dose: 100.0 mg/kg/injection, schedule: Q01DX009 (ip), vehicle: saline with Tween-80.
Where [15] appears, read: dose: 200.0 mg/kg/injection, schedule: Q01DX009 (ip), vehicle: saline with Tween-80.

For `COc1cccc2c1C(=O)c1c(O)c3c(c(O)c1C2=O)C[C@@](O)(C(C)=O)C[C@@H]3OC1CC(N(C)C)C(O)C(C)O1` (some centres undefined), the T/C is 115 % of control (dose: 0.25 mg/kg/injection, schedule: Q01DX009 (ip), vehicle: water); 158 % of control (dose: 0.5 mg/kg/injection, schedule: Q01DX009 (ip), vehicle: water); 115 % of control (dose: 0.63 mg/kg/injection, schedule: Q04DX003 (ip), vehicle: water); 171 % of control and 190 % of control (dose: 1.0 mg/kg/injection, schedule: Q01DX009 (ip), vehicle: water); 116 % of control (dose: 1.25 mg/kg/injection, schedule: Q01DX001 (ip), vehicle: water); 100 % of control (dose: 1.25 mg/kg/injection, schedule: Q04DX003 (ip), vehicle: water). The T/C is, setting by setting: (dose: 2.0 mg/kg/injection, schedule: Q01DX009 (ip), vehicle: water) 200 % of control and 228 % of control; (dose: 2.16 mg/kg/injection, schedule: Q04DX003 (ip), vehicle: water) 151 % of control; (dose: 2.5 mg/kg/injection, schedule: Q04DX003 (ip), vehicle: water) 109 % of control; (dose: 4.0 mg/kg/injection, schedule: Q01DX009 (ip), vehicle: water) 98 % of control and 88 % of control; (dose: 5.0 mg/kg/injection, schedule: Q04DX003 (ip), vehicle: water) 104 % of control and 121 % of control; (dose: 6.0 mg/kg/injection, schedule: Q04DX003 (ip), vehicle: water) 170 % of control. Also, the T/C by setting is: (dose: 10.0 mg/kg/injection, schedule: Q01DX001 (ip), vehicle: water) 154 % of control; (dose: 10.0 mg/kg/injection, schedule: Q04DX003 (ip), vehicle: water) 199 % of control; (dose: 16.7 mg/kg/injection, schedule: Q04DX003 (ip), vehicle: water) 93 % of control; (dose: 20.0 mg/kg/injection, schedule: Q01DX001 (ip), vehicle: water) 169 % of control; (dose: 20.0 mg/kg/injection, schedule: Q04DX003 (ip), vehicle: water) 123 % of control; (dose: 40.0 mg/kg/injection, schedule: Q04DX003 (ip), vehicle: water) 114 % of control.
For the compound `O=C(Nc1ccc(Cl)cc1C(=O)c1ccccn1)c1ccccc1`, the T/C by setting is: (dose: 12.5 mg/kg/injection, schedule: Q04DX003 (ip), vehicle: saline with Tween-80) 107 % of control; under setting [1], 93 % of control; under setting [2], 108 % of control; under setting [3], 94 % of control; (dose: 200.0 mg/kg/injection, schedule: Q04DX003 (ip), vehicle: saline with Tween-80) 97 % of control.
Regarding `COc1ccc2c(c1)C1(C)CC(OC1=O)C2=O` (centres undefined), the T/C is 99 % of control under setting [4], 100 % of control under setting [5] and 100 % of control under setting [6].
Regarding `CCCCCN1C(=O)C2C3CCC(O3)C2C1=O` (centres undefined), the T/C runs as follows: under setting [7], 109 % of control; under setting [8], 109 % of control.
Regarding `CCn1c2ccccc2c2cc(N)c(N=Nc3ccc([N+](=O)[O-])cc3)cc21`, the T/C was 105 % of control under setting [9], 104 % of control under setting [10] and 105 % of control under setting [11].
Consider `COC12C(COC(N)=O)C3=C(C(=O)C(C)=C(N4CC4)C3=O)N1CC1NC12` (centres undefined), for which the T/C is 154 % of control (dose: 0.13 mg/kg/injection, schedule: Q04DX003 (ip), vehicle: saline sonified); 163 % of control (dose: 0.25 mg/kg/injection, schedule: Q04DX003 (ip), vehicle: saline sonified); 91 % of control (dose: 0.33 mg/kg/injection, schedule: Q04DX003 (ip), vehicle: saline with Tween-80); 181 % of control (dose: 0.5 mg/kg/injection, schedule: Q04DX003 (ip), vehicle: saline sonified); 87 % of control (dose: 0.75 mg/kg/injection, schedule: Q04DX003 (ip), vehicle: saline with Tween-80).
For `Cc1nn(C(=O)c2ccncc2)c(C)c1N=Nc1ccccc1[N+](=O)[O-]`, the T/C was 102 % of control under setting [9], 96 % of control under setting [10] and 98 % of control under setting [11].
Turning to `Cc1noc2c1NC(=O)OCC2`, the T/C under setting [7] was 101 % of control, the T/C under setting [8] is 95 % of control and the T/C under setting [12] is 97 % of control.
As for `COc1ccc(CC2CCCNC2C(=O)O)cc1` (centres undefined), the T/C by setting is: under setting [13], 114 % of control; under setting [14], 101 % of control; under setting [15], 99 % of control.
`CCOC(=O)/C(C#N)=C\c1ccc(OCc2ccccc2)c(OCc2ccccc2)c1`: the T/C is, setting by setting: (dose: 12.5 mg/kg/injection, schedule: Q01DX005 (ip), vehicle: distilled water + alcohol) 93 % of control; (dose: 25.0 mg/kg/injection, schedule: Q01DX005 (ip), vehicle: distilled water + alcohol) 87 % of control; (dose: 50.0 mg/kg/injection, schedule: Q01DX005 (ip), vehicle: distilled water + alcohol) 88 % of control; under setting [8], 89 % of control; under setting [12], 91 % of control.
As for `O=c1ccc2cc3c(nc2[nH]1)[nH]c1ccccc13`, the T/C (dose: 100.0 mg/kg/injection, schedule: Q04DX002 (ip), vehicle: Klucel (hydroxypropylcellulose) (HPC)) was 101 % of control; the T/C (dose: 200.0 mg/kg/injection, schedule: Q04DX002 (ip), vehicle: Klucel (hydroxypropylcellulose) (HPC)) is 99 % of control; the T/C (dose: 400.0 mg/kg/injection, schedule: Q04DX002 (ip), vehicle: Klucel (hydroxypropylcellulose) (HPC)) is 101 % of control.
With `NC(=S)c1ccc(/C=N/c2nc3ccccc3s2)cc1`, the T/C was 103 % of control under setting [4]; 97 % of control under setting [5]; 96 % of control and 97 % of control under setting [6]; 97 % of control (dose: 200.0 mg/kg/injection, schedule: Q01DX001 (ip), vehicle: Klucel (hydroxypropylcellulose) (HPC)); 97 % of control (dose: 400.0 mg/kg/injection, schedule: Q01DX001 (ip), vehicle: Klucel (hydroxypropylcellulose) (HPC)).
For the compound `COc1ccc2cc1Oc1ccc(cc1)CC1c3cc(c(OC)cc3CCN1C)Oc1c(OC)c(OC)c(O)c3c1C(C2)N(C)CC3` (centres undefined), the T/C (dose: 25.0 mg/kg/injection, schedule: Q01DX001 (ip), vehicle: saline with Tween-80) is 99 % of control; the T/C (dose: 50.0 mg/kg/injection, schedule: Q01DX001 (ip), vehicle: saline with Tween-80) is 105 % of control; the T/C (dose: 100.0 mg/kg/injection, schedule: Q01DX001 (ip), vehicle: saline with Tween-80) is 108 % of control and 111 % of control.
For `CC1NCCCN(CCN(C)C)CCCNC(C)c2cccc1n2` (centres undefined), the T/C is, setting by setting: (dose: 50.0 mg/kg/injection, schedule: Q01DX001 (ip), vehicle: saline) 103 % of control and 96 % of control; (dose: 100.0 mg/kg/injection, schedule: Q01DX001 (ip), vehicle: saline) 101 % of control and 114 % of control and 92 % of control; (dose: 200.0 mg/kg/injection, schedule: Q01DX001 (ip), vehicle: saline) 103 % of control and 122 % of control and 97 % of control.
Regarding `C/C=C(\C#N)SCC`, the T/C runs as follows: under setting [13], 103 % of control; under setting [14], 114 % of control; under setting [15], 109 % of control.
Consider `CC12CCC(Br)C(C)(C)C1CC=C1C(=O)OCC1O2` (centres undefined), for which the T/C was 101 % of control (dose: 7.5 mg/kg/injection, schedule: Q01DX009 (ip), vehicle: Klucel (hydroxypropylcellulose) (HPC)); 105 % of control (dose: 15.0 mg/kg/injection, schedule: Q01DX009 (ip), vehicle: Klucel (hydroxypropylcellulose) (HPC)); 111 % of control (dose: 30.0 mg/kg/injection, schedule: Q01DX009 (ip), vehicle: Klucel (hydroxypropylcellulose) (HPC)); 111 % of control (dose: 60.0 mg/kg/injection, schedule: Q01DX009 (ip), vehicle: Klucel (hydroxypropylcellulose) (HPC)).
On to `O=C(O)CCCNC1=CC(=O)c2ccccc2C1=O`, for which the T/C reads like this: under setting [1], 101 % of control; under setting [2], 104 % of control; under setting [3], 102 % of control and 86 % of control.
